The text below walks through data of patent publication US20100184732A1, “METHOD OF LONG-TERM TREATMENT OF GRAFT-VERSUS-HOST DISEASE USING TOPICAL ACTIVE CORTICOSTEROIDS” (priority 2000, published 2010).

The test system of data set [1] is patients with gastrointestinal GVHD. The following applies: cited from earlier work.
The test system of data set [2] is patients with Grade II GVHD with gastrointestinal symptoms. Put plainly: Phase III randomized, double-blind, placebo-controlled trial of oral BDP plus 10 days of prednisone: treatment failure and survival. It counts as in vivo, human. The following applies: for Treatment failure rate (95% CI): Kaplan-Meier estimate. The source says:
The Secondary objectives of the study were: • 1. To compare the proportion of treatment failures in the two groups on Study Days 10, 30, 50, 60, and 80. • 2. To compare the treatment groups with respect to cumulative systemic corticosteroid exposure. • 3. […] To compare the treatment groups with respect to total deaths and cause of death through 200 days post-transplant. • 6.
To be eligible for entry into the study, patients must be at least 10 days post allogeneic hematopoietic cell transplantation, have GI symptoms consistent with Grade II GVHD, and have endoscopic evidence of GVHD. The diagnosis of GVHD was confirmed by biopsy of the intestine (esophagus, stomach, small intestine, or colon) or skin.
This was a multi-center, randomized, double-blind, placebo-controlled, parallel-group study in patients with Grade II GVHD with GI symptoms. To determine eligibility for entry into the study, patients must undergo a screening evaluation, including intestinal or skin biopsy and infection work-up.
The randomization was stratified by the source of the allograft (two HLA haplotype identical sibling versus all other), and by topical corticosteroid use (yes versus no). All patients received 10 days of prednisone at 1 mg/kg/day (or an equivalent dose of intravenous [IV] corticosteroid).
For all patients, the second dose of study drug was administered on the morning of Study Day 2, after which dosing was 4 times daily until Study Day 50.
All patients are monitored per standard post transplant routine in the hospital or outpatient clinic. Patients underwent study evaluations, included blood specimens for PK analysis, on Study Days 10, 30, 50, 60, and 80. In addition, adverse events that occurred during the interval since the prior visit are assessed and recorded. Following the final dose of study drug on the morning of Study Day 50, timed blood samples were obtained for up to 24 hours for PK analysis from some patients.
• 1. […] Karnofsky Scale score if the patient is 16 years of age or older or the Lansky Scale score if the patient is younger than 16 years of age.
• 1. Adverse events. • 2. Cumulative prednisone dose (per kg of body weight). • 3. Worsening of GVHD as determined through the assessment of diarrhea, rash, and bilirubin levels. • 4. HPA axis function. • 5. Hematology measurements (with differential, including eosinophils) at Baseline and Study Day 50. • 6. Serum chemistry and urinalysis measurements at Baseline and Study Day 50. • 7. Patient survival through day 200 post-transplant.
The primary efficacy endpoint of this two-arm study is the time to treatment failure. The primary efficacy analysis will compare the time to treatment failure through Study Day 50 using a log-rank test controlling for patient randomization stratum. Product-limit estimates for time to failure will be provided for descriptive purposes. The null hypothesis for the log-rank test is that time to failure is homogeneous across the treatment groups.
Secondary analyses of treatment failure compared the treatment groups with respect to proportion of treatment failures and Karnofsky Scale (or Lansky Scale) scores at key time points.
Both regimens included oral prednisone (1 mg/kg/day) or an equivalent dose of IV methylprednisolone (dose of IV methylprednisolone=0.8×dose of oral prednisone) given in 2 divided doses per day on Study Days 1 to 10.
On Study Day 10, patients were evaluated for the signs and symptoms of GVHD. […] Starting on Study Day 17, physiologic replacement doses of prednisone were given for the remainder of the study. If the investigator determined that GVHD was not controlled on Study Day 10, patients discontinued study drug but continued prednisone initially at 1 mg/kg/day; these patients were considered to be treatment failures. In treatment failure cases, physicians subsequently modified prednisone dosage as deemed appropriate.

A further data set concerns patients with GVHD. To be noted: high-dose prednisone, 2 mg per kg per day; cited from earlier work.

Structures are written as SMILES.

For the compound `CCC(=O)OCC(=O)[C@@]1(OC(=O)CC)[C@@H](C)C[C@H]2[C@@H]3CCC4=CC(=O)C=C[C@]4(C)[C@@]3(Cl)[C@@H](O)C[C@@]21C` [BDP, beclomethasone dipropionate], in data set [1] (8 mg daily oral, BDP alone and added to prednisone), the “appetite, oral intake, nausea and diarrhea over the course of therapy” value is “Significant improvement”. For the same compound, in data set [1] (8 mg/day for 28 days), the treatment-related adverse events entry was “No significant treatment-related adverse events”. Moreover, the time to improvement in data set [1] (BDP as monotherapy) is 7 to 10 days. Also, the “safety and efficacy in mild-to-moderate intestinal GVHD” value in data set [1] (alone or added to prednisone) was “safe and effective”. In addition, in data set [2] (200 days post-transplant, Safety Population), the “Day 200 survival rate (95% CI)” value is recorded as 0.91 (0.86, 0.98). The “Treatment failure rate (95% CI)” value in data set [2] (Study Day 10) is listed as 0.14 (0.08, 0.24); in data set [2] (Study Day 30), 0.25 (0.18, 0.37); in data set [2] (Study Day 50), 0.31 (0.23, 0.43); in data set [2] (Study Day 60) it was 0.33 (0.24, 0.45); in data set [2] (Study Day 80), 0.39 (0.30, 0.52). The “time to treatment failure through Day 50 (primary endpoint), significance versus placebo” value in data set [2] (through Day 50, p-value 0.1177) is recorded as “did not achieve statistical significance”. Moreover, in data set [2] (through Day 80, p-value 0.0226), the “time to treatment failure through Day 80 (secondary endpoint), significance versus placebo” value was “did achieve statistical significance”.
For `C[C@]12C=CC(=O)C=C1CC[C@@H]1[C@@H]2C(=O)C[C@@]2(C)[C@H]1CC[C@]2(O)C(=O)CO` [Prednisone, prednisone], the “complete and sustained remission of gastrointestinal symptoms” value in the data set with patients with GVHD is 50-70 % of patients.
